Source: paper PMC9502528, “Stability Study of Alpinia galanga Constituents and Investigation of Their Membrane Permeability by ChemGPS-NP and the Parallel Artificial Membrane Permeability Assay” (Pharmaceutics, 2022)
Where two headings read alike, the source gives them in different places.

Tests used:
[1] = system: nitric oxide (NO) production in mouse peritoneal macrophages; design: method as in PMID 15930771; details: cited from earlier work
[2] = PAMPA-BBB (parallel artificial membrane permeability assay, porcine polar brain lipid extract); type: in vitro ADME
Method: The test solutions were prepared with DMSO at the concentration of 10.0 mM. These were diluted with PBS buffer pH = 7.4 (PAMPA-BBB) or pH = 6.8 (PAMPA-GI) to obtain the donor solutions (297.0 μL buffer + 3.0 μL DMSO solution) and filtered through Phenex-RC 15 mm, 0.2 μm syringe filters (Gen-Lab Ltd., Budapest, Hungary). A parallel artificial membrane permeability assay (PAMPA) system was used to determine the effective permeability (Pe) for the compounds of interest. Each well of the top plate (96-well polycarbonate-based filter donor plates (Multiscreen™-IP, MAIPN4510, pore size 0.45 μm; Millipore)) was coated with 5 μL of porcine polar brain lipid extract (PBLE) solution (8.0 mg PBLE + 4.0 mg cholesterol dissolved in 300.0 μL n-dodecane) for PAMPA-BBB; or with 5 μL of mixture of 8.0 mg phosphatidylcholine + 4.0 mg cholesterol dissolved in 300.0 μL n-dodecane for PAMPA-GI. Then, 150.0 μL of the filtrate was placed on the membrane. The bottom plate (96-well PTFE acceptor plates (Multiscreen Acceptor Plate, MSSACCEPTOR; Millipore)), was filled with 300.0 μL buffer solution (0.01 M PBS buffer, pH = 7.4). The donor and acceptor plates were fit, and then the sandwich system was incubated at 37 °C for 4 h in a Stat-Fax 2200 (Awareness Technology, Palm City, FL, USA). After the incubation, the PAMPA plates were separated and the compound concentrations in the donor (CD(t)) and acceptor (CA(t)) solutions, as well as in the donor solution at zero time point (CD(0)), were determined by UPLC-DAD. […] At iso-pH conditions (PAMPA-BBB), the effective permeability and the membrane retention of drugs were calculated by the following equation [21]:(1) Pe =−2.303/A(t−τSS)·(VA·VD/VA+VD)·lg[1−(VA+VD/(1−MR)·VD)×(CA(t)/CD(0))], where Pe is the effective permeability coefficient (cm/s), A is the filter area (0.24 cm^2), VD and VA are the volumes in the donor (0.15 cm^3) and acceptor phases (0.30 cm^3), t is the incubation time (s), τSS is the time (s) to reach steady-state (240 s), CD(t) is the concentration (mol/cm^3) of the compound in the donor phase at time t, CD(0) is the concentration (mol/cm^3) of the compound in the donor phase at time 0, and MR is the estimated membrane retention factor (the estimated mole fraction of solute lost to the membrane):(2) MR=1−CD(t)/CD(0)−VA/VDCA(t)/CD(0)
All experiments were performed in three triplicates on three consecutive days (n = 9).

[3] = PAMPA-GI of the A. galanga ethyl acetate extract; type: in vitro ADME; details: donor PBS pH 6.8, 37 °C, 4 h, UHPLC-DAD
Method: The test solutions were prepared with DMSO at the concentration of 10.0 mM. These were diluted with PBS buffer pH = 7.4 (PAMPA-BBB) or pH = 6.8 (PAMPA-GI) to obtain the donor solutions (297.0 μL buffer + 3.0 μL DMSO solution) and filtered through Phenex-RC 15 mm, 0.2 μm syringe filters (Gen-Lab Ltd., Budapest, Hungary). A parallel artificial membrane permeability assay (PAMPA) system was used to determine the effective permeability (Pe) for the compounds of interest. Each well of the top plate (96-well polycarbonate-based filter donor plates (Multiscreen™-IP, MAIPN4510, pore size 0.45 μm; Millipore)) was coated with 5 μL of porcine polar brain lipid extract (PBLE) solution (8.0 mg PBLE + 4.0 mg cholesterol dissolved in 300.0 μL n-dodecane) for PAMPA-BBB; or with 5 μL of mixture of 8.0 mg phosphatidylcholine + 4.0 mg cholesterol dissolved in 300.0 μL n-dodecane for PAMPA-GI. Then, 150.0 μL of the filtrate was placed on the membrane. The bottom plate (96-well PTFE acceptor plates (Multiscreen Acceptor Plate, MSSACCEPTOR; Millipore)), was filled with 300.0 μL buffer solution (0.01 M PBS buffer, pH = 7.4). […] After the incubation, the PAMPA plates were separated and the compound concentrations in the donor (CD(t)) and acceptor (CA(t)) solutions, as well as in the donor solution at zero time point (CD(0)), were determined by UPLC-DAD. […]

[4] = design: method as in PMID 10564034; details: 5% ethanol-containing aqueous solution at 60 °C; cited from earlier work
[5] = Stability analyses in PBS (pH 7.4) at 37 °C for 4 h, UPLC-DAD; type: physicochemical; details: for percentage difference between the initial and final concentrations: PBS pH 7.4, 37 °C, 4 h, 100 μM; for stability in aqueous media: aqueous media (PBS)
Method: The isolation of 8 compounds (compounds 1, 2, […], 5, 6, 7, 9, and 10) was carried out using flash chromatography and semi-preparative HPLC; the corresponding data is presented in the Supplementary Materials. For stability analyses, the stock solutions were prepared from the ethyl acetate extract (200 mg/mL) and from compounds 1, 2, 4, 5, 6, 7, 9, and 10 dissolved in dimethyl sulfoxide (DMSO) at the concentration of 10.0 mM. These were diluted 100-fold with PBS (Phosphate Buffer Saline; pH = 7.4). The samples were filtered through Phenex-RC 15 mm, 0.2 μm syringe filters (Gen-Lab Ltd., Budapest, Hungary). The solutions were incubated at 37 °C for 4 h; the decomposition was determined by UPLC-DAD. All experiments were performed in triplicates, on three consecutive days ([…]).
The eight isolated compounds (p-OH-benzaldehyde (1), trans-p-coumaryl-alcohol (2), p-coumaryl-aldehyde (4), galanganol A (5), galanganol B (6), trans-p-acetoxycinnamyl alcohol (7), 1′S-1′-acetoxychavicol acetate (9), and 1′S-1′-acetoxyeugenol acetate (10)) were identified by UHPLC-high-resolution Orbitrap® mass spectrometry (HR-MS) and by NMR spectroscopy; the corresponding data is presented in the Supplementary Materials, while Figure 3 depicts the structures of the isolated compounds. In order to answer the questions raised about the possible conversion and decomposition of the A. galanga constituents during the PAMPA-BBB experiment, investigation of the chemical stability of the isolated compounds was carried out in PBS medium (pH 7.4) at 37 °C for 4 h. For the analysis of the samples acquired in the stability experiments, the aforementioned UHPLC-DAD method that had previously been validated for linearity, precision, and accuracy was utilized (Tables S1 and S2).

[6] = pig, PAMPA, pH 7.4, Table S4 sheet Galangal compounds, PAMPA-BBB, read-out: logPe (converted)
[7] = PAMPA-BBB, pH 7.4, 37 °C, 4 h, Pe in cm/s, n = 9

SMILES	PAMPA-BBB (blood–brain barrier permeability) ([2]; cutoff log Pe −6.0)	Papp at 4 h, 100 µM [2, 6]	nitric oxide (NO) production inhibitory activity [1]	percentage difference between the initial and final concentrations [5]	stability in aqueous media [5]	also measured
OC[C@H](C/C=C/c1ccc(O)cc1)[C@H](O)c1ccc(O)cc1 [Compound 6, galanganol B]	−	7.76 nm/s	showed nitric oxide (NO) production inhibitory activities			Papp at 4 h, 100 µM ([2]; pig, PAMPA, pH 7.4, PAMPA-BBB, pH 7.4, 37 °C, 4 h, Pe in cm/s, n = 9, read-out: log Pe (converted)): 7.24 nm/s; detection in the acceptor solution (PAMPA-GI) [3]: except for compounds 5 and 6
C=C[C@H](OC(C)=O)c1ccc(OC(C)=O)cc1 [Compound 9, 1′S-1′-acetoxychavicol acetate]		398 nm/s	showed nitric oxide (NO) production inhibitory activities	57.78%	unstable	stability in aqueous ethanol [4]: instability
C=C[C@H](OC(C)=O)c1ccc(OC(C)=O)c(OC)c1 [Compound 10, 1′S-1′-acetoxyeugenol acetate]		501 nm/s	showed nitric oxide (NO) production inhibitory activities	14.32%	unstable	
O=C/C=C/c1ccc(O)cc1 [Compound 4, p-coumaryl-aldehyde]			showed nitric oxide (NO) production inhibitory activities			PAMPA-BBB (blood–brain barrier permeability) ([2]; PAMPA): +; log Pe ([2]; pig, PAMPA, 4 h, 100 µM, pH 7.4): −5.25 ± 0.27; Papp at 4 h, 100 µM ([2]; pig, PAMPA, pH 7.4, logPe): 56.2 nm/s
CC(=O)Oc1ccc(/C=C\CO)cc1 [Compound 8a, cis-p-acetoxycinnamyl alcohol]		316 nm/s				
CC(=O)Oc1ccc(/C=C/CO)cc1 [Compound 7, trans-p-acetoxycinnamyl alcohol]		316 nm/s		8.04%	unstable	

The next lines start with results.

PAMPA-BBB (blood–brain barrier permeability) ([2]; cutoff log Pe −6.0)	Papp at 4 h, 100 µM [2, 6]	SMILES	nitric oxide (NO) production inhibitory activity [1]	percentage difference between the initial and final concentrations [5]	stability in aqueous media [5]	also measured
+	27.5 nm/s	O=Cc1ccc(O)cc1 [Compound 1, p-OH-benzaldehyde]				log Pe [2, 7]: −5.56 ± 0.07
−	7.76 nm/s	OC[C@@H](C/C=C/c1ccc(O)cc1)[C@H](O)c1ccc(O)cc1 [Compound 5, galanganol A]				detection in the acceptor solution (PAMPA-GI) [3]: except for compounds 5 and 6
+	13.8 nm/s	OC/C=C/c1ccc(O)cc1 [Compound 2, trans-p-coumaryl-alcohol]	showed nitric oxide (NO) production inhibitory activities			log Pe [2, 7]: −5.86 ± 0.23
	13.8 nm/s	OC/C=C\c1ccc(O)cc1 [Compound 3a, cis-p-coumaryl-alcohol]				
